Counter-ions that a name gives are not always drawn. Like-named read-outs stand apart in the source and are kept apart here.
Key:
[1] = target: T1, human JAK1 (a.a. 837-1142) (Homo sapiens, UniProt P23458); test: In vitro JAK kinase assay (HTRF, phosphorylation of biotinylated peptide), JAK1; assay type: biochemical
T1 construct: The catalytic domains of human JAK1 (a.a. 837-1142); His tag (N); made in house; host or cells: insect cells (baculovirus)
Procedure, shortened: (§1)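 IC50 from HTRF detection (Eu-Py20 antibody, SA-APC, 40 min) after EDTA quench. Reactions ran 1 h at room temperature with 500 nM biotinylated peptide in Tris pH 7.8 buffer with NaCl, DTT, BSA; ATP 90 μM for JAK1, 30 μM for JAK2 (Km), or 1 mM. Enzymes: His-tagged catalytic domains from insect cells.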

[2] = target: T2, Jak2 (a.a. 828-1132) (Homo sapiens, UniProt O60674); test: In vitro JAK kinase assay (HTRF, phosphorylation of biotinylated peptide), JAK2; assay type: biochemical
T2 construct: Jak2 (a.a. 828-1132); His tag (N); made in house; host or cells: insect cells (baculovirus)
Procedure, shortened: as §1

[3] = 1 mM ATP, Examples 92-162, read-out: JAK1 IC50 (nM) @ 1 mM ATP
[4] = 1 mM ATP, Examples 92-162, read-out: JAK2 IC50 (nM) @ 1 mM ATP
[5] = 1 mM ATP, Examples 12-91, read-out: JAK1 IC50 (nM) @ 1 mM ATP
[6] = 1 mM ATP, Examples 12-91, read-out: JAK2 IC50 (nM) @ 1 mM ATP

T2 sequence (O60674 828-1132): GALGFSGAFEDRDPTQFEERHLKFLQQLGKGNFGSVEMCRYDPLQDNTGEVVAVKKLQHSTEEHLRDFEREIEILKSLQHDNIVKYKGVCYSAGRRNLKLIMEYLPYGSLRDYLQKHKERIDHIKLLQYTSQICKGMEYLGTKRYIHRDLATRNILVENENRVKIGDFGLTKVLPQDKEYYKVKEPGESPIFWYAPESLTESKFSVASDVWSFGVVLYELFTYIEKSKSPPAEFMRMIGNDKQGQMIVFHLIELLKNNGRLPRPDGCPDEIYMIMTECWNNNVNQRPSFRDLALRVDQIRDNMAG
T1 sequence (P23458 849-1154): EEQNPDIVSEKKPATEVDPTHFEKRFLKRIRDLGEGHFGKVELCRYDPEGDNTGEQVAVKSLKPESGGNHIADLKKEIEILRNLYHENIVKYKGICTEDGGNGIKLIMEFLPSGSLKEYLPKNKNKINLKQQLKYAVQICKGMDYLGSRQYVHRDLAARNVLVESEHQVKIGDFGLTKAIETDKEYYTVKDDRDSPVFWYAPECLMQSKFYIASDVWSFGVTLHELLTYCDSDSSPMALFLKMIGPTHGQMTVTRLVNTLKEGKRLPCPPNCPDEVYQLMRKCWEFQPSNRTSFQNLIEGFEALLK

| SMILES | IC50 [1, 3] [nM] | IC50 [2, 4] [nM] | IC50 [1, 5] [nM] | IC50 [2, 6] [nM] | further results |
| --- | --- | --- | --- | --- | --- |
| N#CCC(CN1CCN(C(=O)c2ccc(C(F)(F)F)c(F)c2)CC1)n1cc(-c2ncnc3[nH]ccc23)cn1 (stereo not shown) [Example 56, 3-(4-(7H-pyrrolo[2,3-d]pyrimidin-4-yl)-1H-pyrazol-1-yl)-4-(4-(3-fluoro-4-(trifluoromethyl)benzoyl)piperazin-1-yl)butanenitrile] | – | – | 10 to 50 | > 100 | – |
| N#CCC(CN1CCN(C(=O)c2ccc(C#N)cc2F)CC1CO)n1cc(-c2ncnc3[nH]ccc23)cn1 (single isomer, unassigned) [156—peak 1, 4-{[4-{3-cyano-2-[4-(7H-pyrrolo[2,3-d]pyrimidin-4-yl)-1H-pyrazol-1-yl]propyl}-3-(hydroxymethyl)piperazin-1-yl]carbonyl}-3-fluorobenzonitrile trifluoroacetate Salt] | < 20 | > 100 | – | – | – |
| N#CCC(CN1CCN(C(=O)c2c(O)cccc2F)CC1)n1cc(-c2ncnc3[nH]ccc23)cn1 (stereo not shown) [Example 35, 3-(4-(7H-pyrrolo[2,3-d]pyrimidin-4-yl)-1H-pyrazol-1-yl)-4-(4-(2-fluoro-6-hydroxybenzoyl)piperazin-1-yl)butanenitrile] | – | – | < 10 | < 10 | – |
| Cc1cc(F)ccc1C(=O)N1CCN(CC(CC#N)n2cc(-c3ncnc4[nH]ccc34)cn2)CC1 (stereo not shown) [Example 47, 3-(4-(7H-pyrrolo[2,3-d]pyrimidin-4-yl)-1H-pyrazol-1-yl)-4-(4-(4-fluoro-2-methylbenzoyl)piperazin-1-yl)butanenitrile] | – | – | < 10 | 10 to 50 | – |
| COc1ccc(C(=O)N2CCN(CC(CC#N)n3ccc(-c4ncnc5[nH]ccc45)c3)CC2)cc1F (stereo not shown) [Example 82, 3-(3-(7H-pyrrolo[2,3-d]pyrimidin-4-yl)-1H-pyrrol-1-yl)-4-(4-(3-fluoro-4-methoxybenzoyl)piperazin-1-yl)butanenitrile] | – | – | < 10 | 10 to 50 | – |
| N#CCC(CN1CCN(C(=O)c2c(F)cc(F)cc2F)CC1)n1cc(-c2ncnc3[nH]ccc23)cn1 (stereo not shown) [Example 29, 3-(4-(7H-pyrrolo[2,3-d]pyrimidin-4-yl)-1H-pyrazol-1-yl)-4-(4-(2,4,6-trifluorobenzoyl)piperazin-1-yl)butanenitrile] | – | – | < 10 | < 10 | – |
| CC(CN1CCN(S(=O)(=O)c2ccc(Cl)s2)CC1)n1cc(-c2ncnc3[nH]ccc23)cn1 (stereo not shown) [Example 93, 4-[1-(2-{4-[(5-chloro-2-thienyl)sulfonyl]piperazin-1-yl}-1-methylethyl)-1H-pyrazol-4-yl]-7H-pyrrolo[2,3-d]pyrimidine] | 20 to 50 | > 100 | – | – | – |
| N#CCC(CN1CCN(C(=O)c2c(F)cc(Cl)cc2F)CC1)n1cc(-c2ncnc3[nH]ccc23)cn1 (stereo not shown) [Example 27, 3-(4-(7H-pyrrolo[2,3-d]pyrimidin-4-yl)-1H-pyrazol-1-yl)-4-(4-(4-chloro-2,6-difluorobenzoyl)piperazin-1-yl)butanenitrile] | – | – | < 10 | < 10 | – |
| Cn1ccc(S(=O)(=O)N2CCN(CC(CC#N)n3cc(-c4ncnc5[nH]ccc45)cn3)CC2)n1 (stereo not shown) [Example 4, 4-{4-[(1-methyl-1H-pyrazol-3-yl)sulfonyl]piperazin-1-yl}-3-[4-(7H-pyrrolo[2,3-d]pyrimidin-4-yl)-1H-pyrazol-1-yl]butanenitrile] | – | – | – | – | IC50 ([1]; 1 mM ATP, Examples 1-11, read-out: IC50 (nM) @ 1 mM ATP JAK1): < 10 nM; IC50 ([1]; Km ATP (90 μM for Jak1), Examples 1-11, read-out: IC50 (nM) @ Km ATP JAK1): < 10 nM; IC50 ([2]; 1 mM ATP, Examples 1-11, read-out: IC50 (nM) @ 1 mM ATP JAK2): < 10 nM; IC50 ([2]; Km ATP (30 μM for Jak2), Examples 1-11, read-out: IC50 (nM) @ Km ATP JAK2): < 10 nM |
| C[C@H]1CN(C(=O)c2ccc(C#N)cc2F)CCN1CC(CC#N)n1cc(-c2ncnc3[nH]ccc23)cn1 (single isomer, unassigned) [25, S-2] | – | – | < 10 | > 100 | – |
| N#CCC(CN1CCN(C(=O)c2ccc(C#N)cc2F)CC1CO)n1cc(-c2ncnc3[nH]ccc23)cn1 (single isomer, unassigned) [156—peak 2, 4-{[4-{3-cyano-2-[4-(7H-pyrrolo[2,3-d]pyrimidin-4-yl)-1H-pyrazol-1-yl]propyl}-3-(hydroxymethyl)piperazin-1-yl]carbonyl}-3-fluorobenzonitrile trifluoroacetate Salt] | > 100 | > 100 | – | – | – |
| N#CCC(CN1CCN(C(=O)c2ccc(F)c(C(F)(F)F)c2)CC1)n1cc(-c2ncnc3[nH]ccc23)cn1 (stereo not shown) [Example 57, 3-(4-(7H-pyrrolo[2,3-d]pyrimidin-4-yl)-1H-pyrazol-1-yl)-4-(4-(4-fluoro-3-(trifluoromethyl)benzoyl)piperazin-1-yl)butanenitrile] | – | – | 10 to 50 | > 100 | – |
| COc1ccc(C(=O)N2CCN(CC(CC#N)n3cc(-c4ncnc5[nH]ccc45)cn3)CC2)c(F)c1F (stereo not shown) [Example 34, 3-(4-(7H-pyrrolo[2,3-d]pyrimidin-4-yl)-1H-pyrazol-1-yl)-4-(4-(2,3-difluoro-4-methoxybenzoyl)piperazin-1-yl)butanenitrile] | – | – | < 10 | 10 to 50 | – |
| N#CCC(CN1CCN(S(=O)(=O)c2ccc(Cl)s2)CC1)n1cc(-c2ncnc3[nH]ccc23)cn1 (stereo not shown) [Example 68, 3-(4-(7H-pyrrolo[2,3-d]pyrimidin-4-yl)-1H-pyrazol-1-yl)-4-(4-(5-chlorothiophen-2-ylsulfonyl)piperazin-1-yl)butanenitrile] | – | – | < 10 | < 10 | – |

Second part, led by results:

| IC50 [1, 3] [nM] | IC50 [2, 4] [nM] | IC50 [1, 5] [nM] | IC50 [2, 6] [nM] | SMILES | further results |
| --- | --- | --- | --- | --- | --- |
| 20 to 50 | > 100 | – | – | N#CCC(CN1CCN(C(=O)c2ccc(C#N)cc2F)C(CO)C1)n1cc(-c2ncnc3[nH]ccc23)cn1 (mixture of isomers) [Example 160, 4-{[4-{3-cyano-2-[4-(7H-pyrrolo[2,3-d]pyrimidin-4-yl)-1H-pyrazol-1-yl]propyl}-2-(hydroxymethyl)piperazin-1-yl]carbonyl}-3-fluorobenzonitrile] | – |
| < 20 | 50 to 100 | – | – | COc1cc(Cl)ccc1C(=O)N1CCCN(CC(CC#N)n2cc(-c3ncnc4[nH]ccc34)cn2)CC1 (stereo not shown) [Example 106, 4-[4-(4-chloro-2-methoxybenzoyl)-1,4-diazepan-1-yl]-3-[4-(7H-pyrrolo[2,3-d]pyrimidin-4-yl)-1H-pyrazol-1-yl]butanenitrile] | – |
| < 20 | 20 to 50 | – | – | CCC(CN1CCN(S(=O)(=O)c2ccn(C)n2)CC1)n1cc(-c2ncnc3[nH]ccc23)cn1 (stereo not shown) [Example 115, 4-{1-[1-({4-[(1-methyl-1H-pyrazol-3-yl)sulfonyl]piperazin-1-yl}methyl)propyl]-1H-pyrazol-4-yl}-7H-pyrrolo[2,3-d]pyrimidine] | – |
| < 20 | 20 to 50 | – | – | CCC(CN1CCN(S(=O)(=O)c2ccccc2Cl)CC1)n1cc(-c2ncnc3[nH]ccc23)cn1 (stereo not shown) [Example 132, 4-(1-(1-(4-(2-chlorophenylsulfonyl)piperazin-1-yl)butan-2-yl)-1H-pyrazol-4-yl)-7H-pyrrolo[2,3-d]pyrimidine] | – |
| < 20 | 20 to 50 | – | – | CCC(CN1CCN(S(=O)(=O)c2ccccc2)CC1)n1cc(-c2ncnc3[nH]ccc23)cn1 (stereo not shown) [Example 127, 4-(1-(1-(4-(phenylsulfonyl)piperazin-1-yl)butan-2-yl)-1H-pyrazol-4-yl)-7H-pyrrolo[2,3-d]pyrimidine] | – |
| 20 to 50 | 50 to 100 | – | – | CCC(CN1CCN(C(=O)c2cccc(F)c2F)CC1)n1cc(-c2ncnc3[nH]ccc23)cn1 (stereo not shown) [Example 120, (4-(2-(4-(7H-pyrrolo[2,3-d]pyrimidin-4-yl)-1H-pyrazol-1-yl)butyl)piperazin-1-yl)(2,3-difluorophenyl)methanone] | – |
| 20 to 50 | > 100 | – | – | CC(CN1CCN(C(=O)c2ccc(F)cc2F)CC1)n1cc(-c2ncnc3[nH]ccc23)cn1 (stereo not shown) [Example 95, 4-(1-{2-[4-(2,4-difluorobenzoyl)piperazin-1-yl]-1-methylethyl}-1H-pyrazol-4-yl)-7H-pyrrolo[2,3-d]pyrimidine bis(trifluoroacetate)] | – |
| < 20 | 50 to 100 | – | – | CCC(CN1CCN(S(=O)(=O)c2cc(F)cc(F)c2)CC1)n1cc(-c2ncnc3[nH]ccc23)cn1 (stereo not shown) [Example 142, 4-(1-(1-(4-(3,5-difluorophenylsulfonyl)piperazin-1-yl)butan-2-yl)-1H-pyrazol-4-yl)-7H-pyrrolo[2,3-d]pyrimidine] | – |
| < 20 | 50 to 100 | – | – | CCC(CN1CCN(S(=O)(=O)c2ccc(F)cc2F)CC1)n1cc(-c2ncnc3[nH]ccc23)cn1 (stereo not shown) [Example 140, 4-(1-(1-(4-(2,4-difluorophenylsulfonyl)piperazin-1-yl)butan-2-yl)-1H-pyrazol-4-yl)-7H-pyrrolo[2,3-d]pyrimidine] | – |
| < 20 | 20 to 50 | – | – | CCC(CN1CCN(S(=O)(=O)c2ccc(Br)s2)CC1)n1cc(-c2ncnc3[nH]ccc23)cn1 (stereo not shown) [Example 145, 4-(1-(1-(4-(5-bromothiophen-2-ylsulfonyl)piperazin-1-yl)butan-2-yl)-1H-pyrazol-4-yl)-7H-pyrrolo[2,3-d]pyrimidine] | – |
| 20 to 50 | > 100 | – | – | Cc1cc(Cl)ccc1C(=O)N1CCCN(CC(CC#N)n2cc(-c3ncnc4[nH]ccc34)cn2)CC1 (stereo not shown) [Example 105, 4-[4-(4-chloro-2-methylbenzoyl)-1,4-diazepan-1-yl]-3-[4-(7H-pyrrolo[2,3-d]pyrimidin-4-yl)-1H-pyrazol-1-yl]butanenitrile] | – |

Reference: patent US9249145B2, “Heterocyclic derivatives of pyrazol-4-yl-pyrrolo[2,3-d]pyrimidines as janus kinase inhibitors” (Incyte Holdings Corporation, priority 2009, dated 2016)
